Laboratory results from US7078499B2, “Nucleotide analogues comprising a reporter moiety and a polymerase enzyme blocking moiety” (GE Healthcare UK Limited, priority 2000, dated 2006).

What was measured:
Assay type in all cases: biochemical
Set-up in all cases: key to result of incorporation (termination / further chain extension): T: Incorporation results in termination; E: Incorporation permits further chain extension; T/E: Predominant product is primer extended by one base, but evidence of some further extension also observed
Vent™ DNA polymerase = experiment: Thermostable DNA polymerase primer extension, Vent; settings: DNA template, 45° C. for 20–40 minutes; for primer extended by at least one base within assay time (grade): TTP replaced entirely by test compound
Experimental: (§1) DNA polymerase assays were performed using Sequence 1 as primer and Sequence 2 as template. • Sequence 1 5′[Cy3]TAACTCATTAACAGGATC 3′ • Sequence 2 5′AT TCGCGGTATTCTGGTATGAAGCTTTTAGATCCTGTTAATGAGTTA GTA3′
(§2) The template (Sequence 2) was designed such that the base (underlined) immediately adjacent to the 3′ end of the hybridised primer is complementary to the nucleotide test compound. Nucleotide test compounds were compounds (6) (4′-C-(glycylaminomethyl)thymidine triphosphate), (8) (4′-C-(N-trifluoroacetyaminomethyl)thymidine triphosphate) and (9) (4′-C-(aminomethyl)thymidine triphosphate) as described above.
(§3) Primer extension reactions were performed using the above primers in the presence of 40 to 80 μM of nucleotide triphosphates. Positive control reactions contained all four native nucleotide triphosphates. For the other reactions the TTP was replaced with either a 2:1 ratio of […] for the terminator control, or entirely by the test compound The enzymes were used at a final concentration of 0.175 units/μl and a magnesium ion concentration of 2.5 mM in buffers supplied by the manufacturer. The primer and template concentrations were 0.5 pmol/μl and 2 pmol/μl respectively.
(§4) Extension reactions with thermophilic enzymes were performed by initially denaturing the fully assembled reactions at 70° C. for 5 min. followed by 45° C. for 20–40 minutes. The following enzymes were used: Taq DNA polymerase (Taq); Thermosequenase (TS); Thermosequenase II (TSII); Thermosequenase E (TSE), Tfl DNA polymerase (Tfl); Tth DNA polymerase (Tth), deltaTts DNA polymerase (deltaTts), deltaTts D DNA polymerase (dettaTTSD) (all from APBiotech); Pfu DNA polymerase (Pfu) (Stratagene Ltd); Vent™ DNA polymerase (Vent) (New England Biolabs).
(§5) The reactions were stopped by adding a 0.5 volume aliquot of 80% formamide containing 0.1% (w/v) bromophenol blue and 0.1% (w/v) cresol blue. The reaction products were separated by denaturing gel electrophoresis at a constant power of 45 W on 16% polyacrylamide gels containing 50% urea.
(§6) Gels were scanned for Cy3 fluorescence on a Molecular Dynamics Fluorimager and the data analysed using Molecular Dynamics ImageQuant 5 software.
(§7) The incorporation of a test nucleotide triphosphate results in the appearance on a polyacrylamide gel of a single band corresponding to a single base extension product. If, however, the enzyme adds additional bases then further bands would be observed that corresponded to either the full-length product or positions of other complementary bases in the template.

deltaTts DNA polymerase = experiment: Thermostable DNA polymerase primer extension, delta Tts; settings: DNA template, 45° C. for 20–40 minutes; for primer extended by at least one base within assay time (grade): TTP replaced entirely by test compound
Experimental: as §1, §2, §3, §4, §5, §6, §7

Sequenase 2™ = target: T1, Sequenase 2™ (Escherichia phage T7, UniProt P00581, DEL118-145); experiment: Mesophilic DNA polymerase primer extension, Seq; settings: DNA template, 37° C. for 20–40 minutes; for primer extended by at least one base within assay time (grade): TTP replaced entirely by test compound
T1 construct: purchased AP Biotech
Experimental: DNA polymerase assays were performed using Sequence 1 as primer and Sequence 2 as template. • Sequence 1 5′[Cy3][…] 3′ • Sequence 2 5′AT […]3′
as §2, §3
(§8) Extension reactions preformed with mesophilic polymerases were carried out by mixing all the components of the reaction except the enzyme and heating to 70° C. for 5 min. After the reactions had cooled to room temperature 0.175 units of the enzyme were added and the reactions heated to 37° C. for 20–40 minutes. The following enzymes were used: T7 DNA polymerase (T7); Sequenase 2™ (Seq); Klenow fragment of DNA polymerase 1 (Klen); phi-29 DNA polymerase (Phi-29); T4 DNA polymerase (T4) (all from AP Biotech) and Bst DNA polymerase (Bst) (Cambio Ltd).
as §5, §6, §7

T4 DNA polymerase = target: T2, T4 DNA polymerase (Enterobacteria phage T4, UniProt P04415); experiment: Mesophilic DNA polymerase primer extension, T4; settings: DNA template, 37° C. for 20–40 minutes; for primer extended by at least one base within assay time (grade): TTP replaced entirely by test compound
T2 construct: purchased AP Biotech
T2 sequence (P04415 1-898): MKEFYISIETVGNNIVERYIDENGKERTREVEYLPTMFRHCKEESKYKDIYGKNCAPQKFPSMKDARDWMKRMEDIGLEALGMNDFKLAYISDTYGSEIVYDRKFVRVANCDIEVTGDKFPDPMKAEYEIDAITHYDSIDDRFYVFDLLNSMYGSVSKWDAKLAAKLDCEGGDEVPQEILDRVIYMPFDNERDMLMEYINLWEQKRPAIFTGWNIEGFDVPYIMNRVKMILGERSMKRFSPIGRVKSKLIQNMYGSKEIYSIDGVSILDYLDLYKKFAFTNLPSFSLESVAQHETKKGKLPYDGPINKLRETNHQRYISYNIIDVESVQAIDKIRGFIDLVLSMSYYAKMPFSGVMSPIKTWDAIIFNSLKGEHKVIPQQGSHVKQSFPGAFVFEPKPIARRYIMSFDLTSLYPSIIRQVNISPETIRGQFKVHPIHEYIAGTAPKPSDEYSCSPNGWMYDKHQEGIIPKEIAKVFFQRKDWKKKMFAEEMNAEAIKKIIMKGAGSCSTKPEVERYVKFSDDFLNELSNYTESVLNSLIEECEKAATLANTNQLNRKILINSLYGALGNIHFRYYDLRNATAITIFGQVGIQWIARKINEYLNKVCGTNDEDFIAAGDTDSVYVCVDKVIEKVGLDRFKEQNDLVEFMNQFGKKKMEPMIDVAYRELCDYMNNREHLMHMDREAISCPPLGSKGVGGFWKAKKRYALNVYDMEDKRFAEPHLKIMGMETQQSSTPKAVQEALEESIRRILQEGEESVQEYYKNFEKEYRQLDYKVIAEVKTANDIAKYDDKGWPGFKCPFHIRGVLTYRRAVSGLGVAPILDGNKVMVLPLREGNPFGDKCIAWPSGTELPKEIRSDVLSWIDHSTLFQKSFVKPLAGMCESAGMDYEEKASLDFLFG
Experimental: as §1, §2, §3, §8, §5, §6, §7

T1 sequence (P0AA25 2-109, stated change not applied): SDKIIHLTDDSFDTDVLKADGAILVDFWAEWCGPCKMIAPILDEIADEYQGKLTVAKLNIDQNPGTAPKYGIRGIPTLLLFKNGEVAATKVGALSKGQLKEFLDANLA
T1 sequence (P00581 other isoform, or with tags, fused parts or gaps DEL118-145): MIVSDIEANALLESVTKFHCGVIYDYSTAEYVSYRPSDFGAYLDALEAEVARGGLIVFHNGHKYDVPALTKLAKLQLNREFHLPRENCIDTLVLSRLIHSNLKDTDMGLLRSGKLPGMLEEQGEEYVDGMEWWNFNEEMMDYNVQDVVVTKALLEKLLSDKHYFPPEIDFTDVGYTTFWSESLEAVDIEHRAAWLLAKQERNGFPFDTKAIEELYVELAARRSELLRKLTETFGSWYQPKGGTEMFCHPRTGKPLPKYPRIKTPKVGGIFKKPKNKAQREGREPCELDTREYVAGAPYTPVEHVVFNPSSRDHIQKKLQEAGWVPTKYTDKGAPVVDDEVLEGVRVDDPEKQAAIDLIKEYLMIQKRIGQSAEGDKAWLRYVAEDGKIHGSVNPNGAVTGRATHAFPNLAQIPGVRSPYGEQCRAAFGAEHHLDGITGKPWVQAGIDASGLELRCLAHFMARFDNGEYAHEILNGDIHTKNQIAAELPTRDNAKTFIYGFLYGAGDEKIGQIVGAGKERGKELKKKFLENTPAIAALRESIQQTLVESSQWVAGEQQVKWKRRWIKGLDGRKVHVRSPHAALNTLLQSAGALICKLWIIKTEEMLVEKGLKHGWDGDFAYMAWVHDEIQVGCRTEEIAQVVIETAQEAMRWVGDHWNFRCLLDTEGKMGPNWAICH

Row | Molecule | result of incorporation (termination / further chain extension) (Vent™ DNA polymerase) | primer extended by at least one base within assay time (grade) (Vent™ DNA polymerase) | result of incorporation (termination / further chain extension) (deltaTts DNA polymerase) | primer extended by at least one base within assay time (grade) (deltaTts DNA polymerase) | result of incorporation (termination / further chain extension) (Sequenase 2™) | primer extended by at least one base within assay time (grade) (Sequenase 2™) | result of incorporation (termination / further chain extension) (T4 DNA polymerase) | primer extended by at least one base within assay time (grade) (T4 DNA polymerase)
1 | 4′-C-(Aminomethyl)thymidine triphosphate [compound (9)] | T | +/− (up to 25% of primer extended by at least one base within assay time) | T | +T | T | + (up to 50% of primer extended by at least one base within assay time) | T | + (up to 50% of primer extended by at least one base within assay time)
2 | 4′-C-(Glycylaminomethyl)thymidine triphosphate [compound (6)] | T | +/− (up to 25% of primer extended by at least one base within assay time) | T | + (up to 50% of primer extended by at least one base within assay time) | T | + (up to 50% of primer extended by at least one base within assay time) | T | + (up to 50% of primer extended by at least one base within assay time)
3 | Cc1cn([C@H]2C[C@H](O)[C@@](CNC(=O)C(F)(F)F)(COP(=O)(O)OP(=O)(O)OP(=O)(O)O)O2)c(=O)[nH]c1=O [compound (8), 4′-C-(N-trifluoroacetylaminomethyl)thymidine triphosphate] | T | +/− (up to 25% of primer extended by at least one base within assay time) | T | + (up to 50% of primer extended by at least one base within assay time) | T | + (up to 50% of primer extended by at least one base within assay time) | T | + (up to 50% of primer extended by at least one base within assay time)
